From patent publication US11976083B2, “Inhibitors of peptidylarginine deiminases” (Gilead Sciences, Inc., priority 2020, dated 2024)

Biological target: T1, human PAD4 (Homo sapiens, UniProt Q9UM07)
T1 construct: human PAD4 (NM_012387), A2-P663, was PCR amplified; His-SUMO (N, cleaved yes); made in house; host or cells: E. coli BL21(DE3)
Assay: In vitro PAD4 BAEE biochemical assay
Settings: BAEE substrate 3 mM, 5 nM PAD4, 2 mM calcium chloride; geometric mean of multiple experiments
Method in brief: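 Recombinant PAD4 (5 nM final) with 2 mM CaCl2 was preincubated with compound for 30 min at 25 °C in MOPS pH 7.6 buffer with DTT, then reacted with 3 mM BAEE for 2 h at 25 °C. Released ammonia was detected fluorimetrically with o-phthalaldehyde/DTT; IC50 from four-parameter fit, geometric mean of experiments.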

T1 sequence (Q9UM07 2-663): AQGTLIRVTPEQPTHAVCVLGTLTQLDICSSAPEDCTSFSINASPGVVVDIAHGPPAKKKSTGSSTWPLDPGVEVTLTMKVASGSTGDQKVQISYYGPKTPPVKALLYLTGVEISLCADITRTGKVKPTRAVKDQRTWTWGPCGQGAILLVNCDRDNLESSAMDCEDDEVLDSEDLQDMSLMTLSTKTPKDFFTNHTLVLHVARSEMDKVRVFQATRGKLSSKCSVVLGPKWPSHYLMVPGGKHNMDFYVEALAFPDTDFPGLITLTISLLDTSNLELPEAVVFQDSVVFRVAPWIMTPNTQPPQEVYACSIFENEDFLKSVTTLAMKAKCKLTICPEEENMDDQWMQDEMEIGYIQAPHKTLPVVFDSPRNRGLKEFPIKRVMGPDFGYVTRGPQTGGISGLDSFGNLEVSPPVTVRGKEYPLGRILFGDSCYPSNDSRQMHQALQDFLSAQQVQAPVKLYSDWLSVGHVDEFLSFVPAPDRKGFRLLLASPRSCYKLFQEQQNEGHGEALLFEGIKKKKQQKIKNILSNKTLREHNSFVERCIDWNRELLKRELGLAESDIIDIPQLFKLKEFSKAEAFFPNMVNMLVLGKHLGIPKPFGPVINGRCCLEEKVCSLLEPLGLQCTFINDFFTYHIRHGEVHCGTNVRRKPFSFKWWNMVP

Compound	IC50 [µM]
COc1cc(C(=O)N2CCC[C@@H](N)C2)cc2nc(-c3cc4ccc5nc4n3CCCCCCCCOC5C)n(C)c12 (some centres unmarked) [Example 291, [(3˜{R})-3-amino-1-piperidyl]-[7-methoxy-1-methyl-2-(11-methyl-10-oxa-1,19-diazatricyclo[10.5.2.0^{15,18}]nonadeca-12(19),13,15(18),16-tetraen-17-yl)benzimidazol-5-yl]methanone]	0.335
COc1cc(C(=O)N2CC[C@@H](OC)[C@@H](N)C2)cc2nc(-c3cc4ccc5nc4n3CCCCCC[C@@H]3C[C@H]3C(=O)N[C@@H]5C)n(C)c12 [Example 586, (2~{R},5~{R},7~{R})-15-[5-(3~{S),4~{R})-3-[amino-4-methoxy-piperidine-1-carbonyl]-7-methoxy-1-methyl-benzimidazol-2-yl]-2-methyl-3,14,20-triazatetracyclo[12.5.2.0^ {5,7}.0^{17,21}] henicosa-1(20),15,17(21), 18-tetraen-4-one]	0.088
COc1cc(C(=O)N2[C@H]3CC[C@@H]2[C@H](N)C3)cc2nc(-c3cc4ccc5nc4n3CCCCCc3nccnc3C(=O)N[C@@H]5C)n(C)c12 [Example 598, (2~{R})-17-[5-[(1~{R}, 2~{R},4~{S})-2-amino-7-azabicyclo[2.2.1]heptane-7-carbonyl]-7-methoxy-1-methyl-benzimidazol-2-yl]-2-methyl-3,6,9,16,22-pentazatetracyclo[14.5.2.0^ {5,10}.0^{19,23}] tricosa-1(21),5(10),6,8,17, 19,22-heptaen-4-one]	0.042
COc1cc(C(=O)N2[C@H]3CC[C@@H]2[C@H](N)C3)cc2nc(-c3cc4ccc5nc4n3CCCCOc3ccccc3C(=O)N[C@@H]5C)n(C)c12 [Example 41, (2~{R})-17-[5-[(1~{R),2~{R},4~{S})-2-amino-7-azabicyclo[2.2.1]heptane-7-carbonyl]-7-methoxy-1-methyl-benzimidazol-2-yl]-2-methyl-11-oxa-3,16,22-triazatetracyclo[14.5.2.0^{5,10}.0^{19,23}] tricosa-1(22),5,7,9,17,19(23),20-heptaen-4-one]	0.268
C[C@H]1NC(=O)[C@]2(C)C[C@H]2CCCC(F)(F)Cn2c(-c3nc4cc(C(=O)N[C@H]5CNCC[C@@H]5F)c(F)cc4n3C)cc3ccc1nc32 [Example 553, 2-[(2~{R},5~{R},7~ {R})-11,11-difluoro-2,5-dimethyl-4-oxo-3,13,19-triazatetracyclo [11.5.2.0^{5,7}.0^ {16,20}]icosa-1(19),14, 16(20),17-tetraen-14-yl]-6-fluoro-~{N}-[(3~{S}, 4~{S})-4-fluoro-3-piperidyl]-1-methyl-benzimidazole-5-carboxamide]	0.047
COc1cc(C(=O)N2[C@H]3CC[C@@H]2[C@H](N)C3)cc2nc(-c3cc4ccc5cc4n3CCCCCC[C@@](C)(OC)C(=O)N[C@@H]5C)n(C)c12 [Example 340, (8~{R},11~{R})-17-[5-[(1~{R},2~{R},4~{S})-2-amino-7-azabicyclo[2.2.1]heptane-7-carbonyl]-7-methoxy-1-methyl-benzimidazol-2-yl]-8-methoxy-8,11-dimethyl-1,10-diazatricyclo[10.5.2.0^{15,18}]nonadeca-12(19),13,15(18),16-tetraen-9-one]	0.061
COc1cc(C(=O)N2CCC[C@@H](N)C2)cc2nc(-c3cc4ccc5nc4n3C[C@@H]3C[C@H]3C(OC)CCCC(=O)N[C@@H]5C)n(C)c12 (some centres unmarked) [Example 264, (3~{R},5~{R},12~{R})-18-[5-[(3~{R})-3-aminopiperidine-1-carbonyl]-7-methoxy-1-methyl-benzimidazol-2-yl]-6-methoxy-12-methyl-1,11,20-triazatetracyclo[11.5.2.0^{3,5}.0^{16,19}] icosa-13(20),14,16(19),17-tetraen-10-one]	0.091
CO[C@@H]1CCN(C(=O)c2cc(F)c3c(c2)nc(-c2cc4ccc5nc4n2CCCCCC[C@@](F)(c2cccc(Cl)n2)C(=O)N[C@@H]5C)n3C2CC2)C[C@@H]1N [Example 875, (8~{R},11~{R})-17-[5-[(3~{S), 4~{R})-3-amino-4-methoxy-piperidine-1-carbonyl]-1-cyclopropyl-7-fluoro-benzimidazol-2-yl]-8-(6-chloro-2-pyridyl)-8-fluoro-11-methyl-1,10,19-triazatricyclo[10.5.2.0^{15,18}] nonadeca-12(19), 13,15(18),16-tetraen-9-one]	0.148

Next, values leading:

IC50 [µM]	Compound
0.048	COc1cc(C(=O)N[C@H]2CNCC[C@@H]2F)cc2nc(-c3cc4ccc5nc4n3CC/C=C\C[C@H]3C[C@H]3C(=O)N[C@@H]5C)n(C)c12 [Example 516, ~{N}-[(3~{S},4~ {S})-4-fluoro-3-piperidyl]-7-methoxy-1-methyl-2-[(2~{R},5~{R},7~ {S},9~{Z})-2-methyl-4-oxo-3,13,19-triazatetracyclo[11.5.2.0^ {5,7}.0^{16,20}]icosa-1(19),9,14,16(20),17-pentaen-14-yl]benzimidazole-5-carboxamide]
0.15	COc1cc(C(=O)N[C@H]2CNCC[C@@H]2F)cc2nc(-c3cc4ccc5nc4n3CCCCCCC3(CC(F)(F)C3)C(=O)N[C@@H]5C)n(C)c12 [Example 400, 2-[(11~{R})-1′,1′-difluoro-11-methyl-9-oxo-spiro[1,10,19-triazatricyclo[10.5.2.0^{15,18}]nonadeca-12(19),13,15(18),16-tetraene-8,3′-cyclobutane]-17-yl]-~{N}-[(3~{S},4~{S})-4-fluoro-3-piperidyl]-7-methoxy-1-methyl-benzimidazole-5-carboxamide]
0.275	COc1cc(C(=O)N[C@H]2CNCCC2(F)F)cc2nc(-c3cc4ccc5nc4n3CCCCCCC(C)(C)C(=O)N[C@@H]5C)n(C)c12 [Example 294, ~{N}-[(3~{S})-4,4-difluoro-3-piperidyl]-7-methoxy-1-methyl-2-[(11~{R})-8,8,11-trimethyl-9-oxo-1,10,19-triazatricyclo[10.5.2.0^{15,18}]nonadeca-12(19),13,15(18),16-tetraen-17-yl]benzimidazole-5-carboxamide]
5.13	COc1cc(C(=O)N[C@@H]2CNC[C@@H]3C[C@@H]32)cc2nc(-c3cc4ccc5nc4n3CCCCCCC(C)(C)C(=O)N[C@@H]5C)n(C)c12 [Example 202, ~{N}-[(1~{R},5~{S},6~{S})-3-azabicyclo[4.1.0]heptan-5-yl]-7-methoxy-1-methyl-2-[(11~{R})-8,8,11-trimethyl-9-oxo-1,10,19-triazatricyclo[10.5.2.0^{15,18}]nonadeca-12(19),13,15(18),16-tetraen-17-yl]benzimidazole-5-carboxamide]
0.111	CC(C)OCCn1c(-c2cc3ccc4nc3n2CCCCCCC(C)(C)C(=O)N[C@@H]4C)nc2cc(C(=O)N[C@H]3CNCC[C@@H]3F)c(F)cc21 [Example 424, 6-fluoro-~{N}-[(3~{S},4~{S})-4-fluoro-3-piperidyl]-1-(2-isopropoxyethyl)-2-[(11~{R})-8,8,11-trimethyl-9-oxo-1,10,19-triazatricyclo[10.5.2.0^{15,18}]nonadeca-12(19),13,15(18),16-tetraen-17-yl]benzimidazole-5-carboxamide]
0.08	COCCn1c(-c2cc3ccc4nc3n2CCCCCCC(C)(C)C(=O)N[C@@H]4C)nc2cc(C(=O)N[C@H]3CNCC[C@@H]3F)c(F)c(F)c21 [Example 558, 6,7-difluoro-~{N}-[(3~{S},4~{S})-4-fluoro-3-piperidyl]-1-(2-methoxyethyl)-2-[(11~{R})-8,8,11-trimethyl-9-oxo-1,10,19-triazatricyclo [10.5.2.0^{15,18}]nonadeca-12(19),13,15(18),16-tetraen-17-yl]benzimidazole-5-carboxamide]
